One test has as its system FIMMI. The test is described as follows: Example VI in-water applied ternary mixtures, greenhouse, transplanted paddy rice weeds. It counts as in vivo, Fimbristylis miliacea (L.) Vahl. In outline:
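Compound A (SC, acid-equivalent basis) alone or with cyhalofop-R-butyl or metamifop plus a third herbicide, injected into paddy water of greenhouse-grown transplanted rice and weeds at 1st–4th leaf stage (~29/26 °C). Visual injury scored 0–100% after ~3 weeks vs untreated; expected mixture effects by Colby's equation.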

A further test deals with CYPRO. The test is described as above. Format: in vivo, Cyperus rotundus L. Here is the method:
Weed seeds or nutlets of the desired test plant species were planted in puddled soil (mud) prepared by mixing a shredded, non-sterilized mineral soil (50.5 percent silt, 25.5 percent clay, and 24 percent sand, with a pH of about 7.6 and an organic matter content of about 2.9 percent) and water at a 1:1 volumetric ratio. The prepared mud was dispensed in 365 mL aliquots into 16-ounce (oz.) non-perforated plastic pots with a surface area of 86.59 square centimeters (cm^2) leaving a headspace of 3 centimeters (cm) in each pot. Mud was allowed to dry overnight prior to planting or transplanting. Rice seeds were planted in Sun Gro MetroMix® 306 planting mixture, which typically has a pH of 6.0 to 6.8 and an organic matter content of about 30 percent, in plastic plug trays. Seedlings at the second or third leaf stage of growth were transplanted into 860 mL of mud contained in 32-oz. non-perforated plastic pots with a surface area of 86.59 cm^2 4 days prior to herbicide application. The paddy was created by filling the headspace of the pots with 2.5 to 3 cm of water. When required to ensure good germination and healthy plants, a fungicide treatment and/or other chemical or physical treatment was applied. The plants were grown for 4-22 days in a greenhouse with an approximate 14 hr. photoperiod which was maintained at about 29° C. during the day and 26° C. during the night. Nutrients were added as Osmocote® (19:6:12, N:P:K+minor nutrients) at 2 g per 16-oz. pot and 4 g per 32-oz. pot. Water was added on a regular basis to maintain the paddy flood, and supplemental lighting was provided with overhead metal halide 1000-Watt lamps as necessary. The plants were employed for testing when they reached the first through fourth true leaf stage.
Treatments consisted of the benzyl ester of 4-amino-3-chloro-5-fluoro-6-(4-chloro-2-fluoro-3-methoxy-phenyl)pyridine-2-carboxylic acid (Compound A), formulated as an SC (suspension concentrate), an ACCase inhibitor herbicide, and a third herbicidal component, each applied alone and in ternary combination. Forms of compound A were applied on an acid equivalent basis.
The ACCase inhibitor component was applied on an active ingredient basis and included cyhalofop-R-butyl formulated as Clincher® G and metamifop formulated as Metamifop EC. Other herbicidal components were applied on an active ingredient or acid equivalent basis depending on the compound and included penoxsulam formulated as Grasp® SC, bentazon sodium formulated as Basagran®, triclopyr […] (TEA) salt formulated as Grandstand® R, benzobicyclon formulated as Benzobicyclon, benfuresate formulated as Full Slot® WG, pyraclonil formulated as Pyraclon® Flowable, mefenacet (technical grade material), and pretilachlor (technical grade material).
Treatment requirements for each compound or herbicidal component were calculated based upon the rates being tested, the concentration of active ingredient or acid equivalent in the formulation, an application volume of 1 mL per component per pot, and an application area of 86.59 cm^2 per pot.
For formulated compounds, a measured amount was placed in an individual 100 or 200 mL glass vial and was dissolved in a volume of 1.25% (v/v) Agri-Dex® crop oil concentrate to obtain application solutions.
For technical grade compounds, a weighed amount was placed in an individual 100 to 200 mL glass vial and was dissolved in a volume of acetone to obtain concentrated stock solutions.
Applications were made by injecting with a pipetter appropriate amounts of the application solutions, into the aqueous layer of the paddy. Control plants were treated in the same manner with the solvent blank. Applications were made so that all treated plant material received the same concentrations of acetone and crop oil concentrate.
The treated plants and control plants were placed in a greenhouse as described above and water was added as needed to maintain a paddy flood. […]

The next test has as its system SEBEX. Put plainly: Example V post-emergence field trials in direct-seeded rice. To be noted: foliar, field trial Humphrey, Arkansas, USA. It counts as in vivo, Sesbania exaltata. The protocol: (§1) Multiple field trials were conducted under commercial grower field conditions in Tolima, Colombia; Thessaloniki, Greece; Bianze and Copiano, Italy; and Humphrey, Ark., USA. Trials sites were located in commercially grown fields of direct-seeded rice (Oryza sativa) using standard herbicide small plot research methodology. Plots varied from 2 to 3 meter (m)×5 to 8 m (width×length) with 4 replicates per treatment. The rice crop was grown using normal cultural practices for fertilization, seeding, watering, flooding and maintenance to ensure good growth of the crop and the weeds.
All treatments in the field trials were applied using a backpack compressed air/gas sprayer with flat fan nozzles (80° or 110°) calibrated to apply 187 to 300 L/ha spray volume at approximately 200-400 kPa nozzle pressure. Commercially available products of cyhalofop-butyl (Clincher 180EC, Clincher 200EC, and Clincher SF (285 gr ai/L EC)) were mixed in water at appropriate formulated product rates to achieve the desired rates based on a unit area of application (hectare) to achieve the desired rates as shown. […] Visual weed control was scored on a scale of 0 to 100 percent where 0 corresponds to no injury and 100 corresponds to complete kill.
All treatment results, both for the single product and mixtures, are an average of 4 replicates. The trial sites had naturally occurring populations of weeds. The weed spectrum included, but was not limited to, rice flatsedge (Cyperus iria, CYPIR); smallflower umbrellaplant (Cyperus difformis, CYPDI), junglerice (Echinochloa colona, ECHCO), barnyardgrass (Echinochloa crus-galli, ECHCG); multiple Echinochloa species in the same field (ECHSS), grasslike fimbristylis (Fimbristylis miliacea, FIMMI); ricefield bulrush (Schoenoplectus mucronatus, SCPMU) and hemp Sesbania (Sesbania exaltata, SEBEX). All synergistic interactions were significant at the […] level.

The test system of a further test is CYPDI. The test is described as above. It counts as in vivo, Cyperus difformis. The following applies: foliar, field trial Greece. Here is the method:
as §1
All treatments in the field trials were applied using a backpack compressed air/gas sprayer with flat fan nozzles (80° or 110°) calibrated to apply 187 to 300 L/ha spray volume at approximately 200-400 kPa nozzle pressure. Commercially available products of cyhalofop-butyl (Clincher 180EC, Clincher 200EC, and Clincher SF (285 gr ai/L EC)) were mixed in water at appropriate formulated product rates to achieve the desired rates based on a unit area of application (hectare) to achieve the desired rates as shown. Treatments were rate at 19 to 58 days after application (DAA) as compared to the untreated control plants. Visual weed control was scored on a scale of 0 to 100 percent where 0 corresponds to no injury and 100 corresponds to complete kill. […]

The values below come from US9232796B2, “Herbicidal compositions comprising 4-amino-3-chloro-5-fluoro-6-(4-chloro-2-fluoro-3-methoxyphenyl) pyridine-2-carboxylic acid or a derivative thereof and acetyl-CoA carboxylase (ACCase) inhibitors” (DOW AGROSCIENCES LLC, priority 2012, dated 2016).

The structures appear in SMILES notation.

`CCCCOC(=O)[C@@H](C)Oc1ccc(Oc2ccc(C#N)cc2F)cc1` [Cyhalofop-butyl, butyl(2R)-2-[4-(4-cyano-2-fluorophenoxy)phenoxy]propanoate, reference compound]: the “Visual Weed Control (%) - 21 DAA FIMMI Obs” value in the test on FIMMI (22.5 gai/ha) was 33%; in the test with FIMMI (22.5 gai/ha, second set), 0%; in the test with FIMMI (45 gai/ha) it was 0%; in the test with FIMMI (45 gai/ha, first set), 0%; in the test with FIMMI (45 gai/ha, second set), 0%. The “Visual Weed Control (%) - 24 DAA FIMMI Obs” value is 0% with FIMMI (90 gai/ha); 20% in the test with FIMMI (180 gai/ha); 20% in the test on FIMMI (Table 67, 180 gai/ha, 24 DAA). The “Visual Weed Control (%) - 21 DAA CYPRO Obs” value is 0% with CYPRO (22.5 gai/ha); 0% in the test on CYPRO (45 gai/ha); 0% with CYPRO (Table 69, 90 gai/ha, 21 DAA); 0% with CYPRO (Table 69, 180 gai/ha, 21 DAA); 0% in the test on CYPRO (Table 70, 180 gai/ha, 21 DAA). The “Visual Weed Control (%) - 24 DAA CYPRO Obs” value with CYPRO (90 gai/ha) and in the test with CYPRO (180 gai/ha) was 0% in each case. For the same compound, the “Visual Weed Control (%) - 7 DAA SEBEX Obs” value in the test with SEBEX (280 gai/ha) came out at 0%. The “Visual Weed Control (%) - 55-58 DAA CYPDI Obs” value with CYPDI (300 gai/ha) is recorded as 0%.

Turning to `COc1c(Cl)ccc(-c2nc(C(=O)OCc3ccccc3)c(Cl)c(N)c2F)c1F` [Compound A Benzyl Ester, benzyl ester of 4-amino-3-chloro-5-fluoro-6-(4-chloro-2-fluoro-3-methoxy-phenyl)pyridine-2-carboxylic acid], the “Visual Weed Control (%) - 21 DAA FIMMI Obs” value in the test on FIMMI (1.09 gae/ha) was 8%; in the test with FIMMI (1.09 gae/ha, first set), 8%; in the test with FIMMI (2.19 gae/ha), 33%; with FIMMI (2.19 gae/ha, first set) it was 33%; in the test on FIMMI (4 gae/ha, second set), 62%. The “Visual Weed Control (%) - 24 DAA FIMMI Obs” value with FIMMI (4 gae/ha) was 0%; in the test on FIMMI (8 gae/ha), 50%; in the test with FIMMI (16 gae/ha), 30%; in the test on FIMMI (Table 67, 4 gae/ha, 24 DAA) it was 0%; with FIMMI (Table 67, 8 gae/ha, 24 DAA), 50%; in the test on FIMMI (Table 67, 16 gae/ha, 24 DAA), 30%. Further, the “Visual Weed Control (%) - 21 DAA CYPRO Obs” value in the test with CYPRO (2.19 gae/ha) amounted to 0%; in the test with CYPRO (Table 69, 4 gae/ha, 21 DAA), 3%; in the test with CYPRO (Table 69, 8 gae/ha, 21 DAA) it was 33%; in the test with CYPRO (Table 70, 4 gae/ha, 21 DAA) it was 3%; in the test on CYPRO (Table 70, 8 gae/ha, 21 DAA), 33%. For the same compound, the entries for the “Visual Weed Control (%) - 24 DAA CYPRO Obs” value with CYPRO (4 gae/ha), with CYPRO (8 gae/ha) and in the test on CYPRO (16 gae/ha) were 40%, 60% and 85%, respectively. For the same compound, the “Visual Weed Control (%) - 7 DAA SEBEX Obs” value in the test with SEBEX (24 gae/ha) came out at 80%; with SEBEX (32 gae/ha), 78%. For the same compound, the “Visual Weed Control (%) - 55-58 DAA CYPDI Obs” value in the test with CYPDI (24 gae/ha) is given as 81%.
